Test systems include M14 melanoma; COLO 205 colon; HCT-15 colon; SK-MEL-28 melanoma; SK-OV-3 ovarian; HL-60(TB) leukemia; SN12C renal; TK-10 renal; HOP-62 NSCLC; IGROV1 ovarian.
Common to all, as to assay: NCI-60 cell line screen, 48 h

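Where inhibition never reached the appropriate level, the endpoint shown equals the highest concentration tested. Otherwise, values were interpolated linearly from a five-concentration, 48-hour dose response in 96-well plates. GI50 = concentration required for 50% inhibition of growth. TGI is the concentration that stops growth completely.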

Drawing on PubChem BioAssay (NCI), this text covers GI50 and TGI for 10 molecules.

For the molecule `Cc1cc(O)cc(C)c1/C=C/c1cncc(C(=O)N(C)C)c1`, the GI50 with M14 melanoma, in the test with COLO 205 colon, in the test on HCT-15 colon, in the test on SK-MEL-28 melanoma, in the test on SK-OV-3 ovarian and in the test on HL-60(TB) leukemia was above 25 µM in each case. Also, the GI50 with SN12C renal, in the test on TK-10 renal, in the test on HOP-62 NSCLC and in the test on IGROV1 ovarian was above 25 µM in each case. Also, the TGI in the test with M14 melanoma, in the test with COLO 205 colon, in the test with HCT-15 colon, in the test on SK-MEL-28 melanoma, in the test with SK-OV-3 ovarian and in the test with HL-60(TB) leukemia was above 25 µM throughout. The TGI in the test with SN12C renal, in the test on TK-10 renal, in the test on HOP-62 NSCLC and in the test with IGROV1 ovarian was above 25 µM throughout.

For `O=C(O)c1[nH]c(C(=O)O)c(CC(F)(F)C(F)(F)C(F)(F)F)c1CC(F)(F)C(F)(F)C(F)(F)F`, the TGI with M14 melanoma, with COLO 205 colon, in the test on HCT-15 colon, with SK-MEL-28 melanoma, in the test with SK-OV-3 ovarian and in the test with HL-60(TB) leukemia was above 100 µM each time. Besides, the TGI in the test on SN12C renal, in the test with TK-10 renal, in the test on HOP-62 NSCLC and with IGROV1 ovarian was above 100 µM throughout.

`O=[N+]([O-])/C=C\c1ccc2c(c1)OCO2`: the GI50 in the test with M14 melanoma is 2.08 µM; in the test on COLO 205 colon, 3.71 µM; with HCT-15 colon, 2.46 µM; in the test with SK-MEL-28 melanoma, 4.7 µM; in the test with SK-OV-3 ovarian, 12.1 µM; in the test with HL-60(TB) leukemia, 10.2 µM. The GI50 was 11.4 µM in the test on SN12C renal, 3.16 µM in the test with TK-10 renal, 13.3 µM with HOP-62 NSCLC and 1.98 µM in the test with IGROV1 ovarian. The TGI came to 4.77 µM in the test on M14 melanoma; 13.4 µM with COLO 205 colon; 6.68 µM with HCT-15 colon; 16.4 µM in the test on SK-MEL-28 melanoma; 24.4 µM with SK-OV-3 ovarian; 46.5 µM in the test with HL-60(TB) leukemia. Further, the TGI is 30.3 µM in the test with SN12C renal, 10 µM with TK-10 renal, 27 µM in the test with HOP-62 NSCLC and 4.67 µM in the test on IGROV1 ovarian.

For `ClCCn1cnc2c(SCc3ccccc3)ncnc21`, the GI50 in the test on M14 melanoma was 7.04 µM; with COLO 205 colon it was 1.79 µM; in the test with HCT-15 colon it was 0.334 µM; in the test on SK-MEL-28 melanoma, 10.9 µM; with SK-OV-3 ovarian, 8.3 µM; in the test on HL-60(TB) leukemia, 4.68 µM. In addition, the GI50 with SN12C renal is 8.54 µM; in the test with TK-10 renal, 0.924 µM; in the test on HOP-62 NSCLC, 1.44 µM; in the test on IGROV1 ovarian, 0.497 µM. The TGI with M14 melanoma was above 100 µM; in the test with COLO 205 colon, above 100 µM; in the test on HCT-15 colon, above 100 µM; in the test on SK-MEL-28 melanoma it was above 100 µM; with SK-OV-3 ovarian, above 100 µM; in the test on HL-60(TB) leukemia it was 68.3 µM. Also, the TGI in the test with SN12C renal was above 100 µM; with TK-10 renal, above 100 µM; in the test with HOP-62 NSCLC, above 100 µM; in the test on IGROV1 ovarian it was 10.7 µM.

With `CC(=O)O/C(C)=C\C(=O)O/N=C(\N)c1ccc(C)cc1`, the TGI in the test with M14 melanoma was 93.1 µM; in the test on COLO 205 colon it was above 100 µM; in the test on SK-MEL-28 melanoma it was 42.7 µM; in the test with SK-OV-3 ovarian, above 100 µM; with HL-60(TB) leukemia it was 77.3 µM; in the test on SN12C renal it was 57.4 µM. The TGI in the test on TK-10 renal, in the test on HOP-62 NSCLC and in the test on IGROV1 ovarian was above 100 µM in each case.

Consider `COC(=O)C12C3C4C1C1C2C3C41I` (centres undefined), for which the TGI in the test with M14 melanoma, in the test with COLO 205 colon, in the test with HCT-15 colon, with SK-MEL-28 melanoma, in the test on SK-OV-3 ovarian and with HL-60(TB) leukemia was above 100 µM in each case. For the same molecule, the TGI in the test on SN12C renal, in the test with TK-10 renal, with HOP-62 NSCLC and with IGROV1 ovarian was above 100 µM in each case.

With `O=C(O)C(Cc1ccc(O)c([N+](=O)[O-])c1)N1C(=O)c2ccccc2C1=O` (centres undefined), the TGI in the test with M14 melanoma was above 100 µM; in the test with COLO 205 colon it was above 100 µM; in the test on HCT-15 colon, above 100 µM; in the test on SK-MEL-28 melanoma it was above 100 µM; in the test on SK-OV-3 ovarian it was above 100 µM; with HL-60(TB) leukemia, 47 µM. Also, the TGI in the test with SN12C renal, with TK-10 renal, in the test with HOP-62 NSCLC and in the test on IGROV1 ovarian was above 100 µM throughout.

For the molecule `CN(C)CN1C(=O)S/C(=C2\C(=O)N(CN(C)C)c3ccccc32)C1=O`, the TGI in the test on M14 melanoma was 68.3 µM; with COLO 205 colon, above 100 µM; with HCT-15 colon, above 100 µM; in the test on SK-MEL-28 melanoma, above 100 µM; in the test with SK-OV-3 ovarian it was above 100 µM; with HL-60(TB) leukemia, 37.2 µM. Also, the TGI with SN12C renal was 69.4 µM; with TK-10 renal, above 100 µM; in the test on HOP-62 NSCLC, above 100 µM; with IGROV1 ovarian, above 100 µM.

Regarding `CCCc1ccc(N=Cc2cc(OC)c(OC)c(OC)c2)cc1`, the TGI in the test with M14 melanoma was above 100 µM; in the test on COLO 205 colon it was above 31.6 µM; in the test with HCT-15 colon, above 54.6 µM; in the test with SK-MEL-28 melanoma it was above 100 µM; with SK-OV-3 ovarian, above 100 µM; in the test on HL-60(TB) leukemia it was above 67.5 µM. Further, the TGI in the test with SN12C renal, in the test with TK-10 renal, in the test on HOP-62 NSCLC and with IGROV1 ovarian was above 100 µM throughout.

For `O=C(N/N=C/c1ccc(F)cc1)c1[nH]c2ccc(I)cc2c1-c1ccccc1`, the GI50 was 0.372 µM with M14 melanoma; 0.482 µM in the test with COLO 205 colon; 0.39 µM in the test with HCT-15 colon; 0.494 µM in the test with SK-MEL-28 melanoma; 0.464 µM in the test on SK-OV-3 ovarian; 0.259 µM in the test with HL-60(TB) leukemia. Moreover, the GI50 is 1.63 µM in the test on SN12C renal, 19.7 µM in the test with TK-10 renal, 0.577 µM in the test on HOP-62 NSCLC and 0.45 µM in the test with IGROV1 ovarian. Moreover, the TGI in the test with M14 melanoma is 7.85 µM; with COLO 205 colon it was 1.7 µM; in the test with HCT-15 colon, above 58.3 µM; in the test with SK-MEL-28 melanoma, 55.4 µM; in the test with SK-OV-3 ovarian, 10.7 µM; with HL-60(TB) leukemia, 0.824 µM. For the same molecule, the TGI in the test with SN12C renal is above 100 µM; in the test with TK-10 renal it was above 100 µM; with HOP-62 NSCLC, 13.6 µM; in the test with IGROV1 ovarian it was 32.5 µM.
